Source: ChEMBL document CHEMBL4385661, “An investigation of targeted inhibition of transcription factor activity with pyrrole imidazole polyamide (PA) in chronic myeloid leukemia (CML) blast crisis cells” (2019)
Calls of active or inactive are those of the source. No cut-off for these calls is given here.

Legend:
Homo sapiens [1] = species on record: Homo sapiens; assay: Binding affinity to E2F1 consensus sequence DNA in human KCL22 cells assessed as reduction in MCM2 gene expression at 3 uM incubated for 24 hrs by RT-qPCR analysis relative to control; assay type: cell-based
KCL-22 [2] = assay: Up-regulation of TRIM45 gene expression in human KCL22 cells at 3 uM incubated for 24 hrs by RT-qPCR analysis relative to control; assay type: functional, cell-based
KCL-22 [3] = assay: Inhibition of cell expansion in human KCL22 cells at 0.3 to 3 uM incubated for 48 hrs by trypan blue dye exclusion counting method; assay type: functional, cell-based
KCL-22 [4] = assay: Induction of cell cycle arrest in human KCL22 cells assessed as accumulation at S phase at 3 uM incubated for 72 hrs by propidium iodide staining based flow cytometry analysis (reference value: 23.7%); assay type: functional
Homo sapiens [5] = species on record: Homo sapiens; assay: Binding affinity to E2F1 consensus sequence DNA in human KCL22 cells assessed as reduction in PSMB8 gene expression at 3 uM incubated for 24 hrs by RT-qPCR analysis relative to control; assay type: cell-based
KCL-22 [6] = assay: Induction of cell cycle arrest in human KCL22 cells assessed as accumulation at subG0 phase at 3 uM incubated for 72 hrs by propidium iodide staining based flow cytometry analysis (reference value: 3.91%); assay type: functional
Homo sapiens [7] = species on record: Homo sapiens; assay: Binding affinity to E2F1 consensus sequence DNA in human KCL22 cells assessed as reduction in PET112L gene expression at 3 uM incubated for 24 hrs by RT-qPCR analysis relative to control; assay type: cell-based
KCL-22 [8] = assay: Inhibition of cell expansion in human KCL22 cells at 3 uM incubated for 48 hrs in presence of 10 nM nilotinib by trypan blue dye exclusion counting method; assay type: functional, cell-based
Homo sapiens [9] = species on record: Homo sapiens; assay: Binding affinity to E2F1 consensus sequence DNA in human KCL22 cells assessed as reduction in GNA13 gene expression at 3 uM incubated for 24 hrs by RT-qPCR analysis relative to control; assay type: cell-based
KCL-22 [10] = assay: Inhibition of cell expansion in human KCL22 cells assessed as combination index at 3 uM incubated for 48 hrs in presence of 10 nM nilotinib by trypan blue dye exclusion counting method; assay type: functional
KCL-22 [11] = assay: Induction of cell cycle arrest in human KCL22 cells assessed as accumulation at G2-M phase at 3 uM incubated for 72 hrs by propidium iodide staining based flow cytometry analysis (reference value: 14%); assay type: functional
Homo sapiens [12] = species on record: Homo sapiens; assay: Binding affinity to E2F1 consensus sequence DNA in human KCL22 cells assessed as reduction in SF3B4 gene expression at 3 uM incubated for 24 hrs by RT-qPCR analysis relative to control; assay type: cell-based
KCL-22 [13] = assay: Up-regulation of RARS2 gene expression in human KCL22 cells at 3 uM incubated for 24 hrs by RT-qPCR analysis relative to control; assay type: functional, cell-based
Homo sapiens [14] = species on record: Homo sapiens; assay: Binding affinity to E2F1 consensus sequence DNA in human KCL22 cells assessed as reduction in ZNF354B gene expression at 3 uM incubated for 24 hrs by RT-qPCR analysis relative to control; assay type: cell-based
KCL-22 [15] = assay: Induction of cell cycle arrest in human KCL22 cells assessed as accumulation at G0-G1 phase at 3 uM incubated for 72 hrs by propidium iodide staining based flow cytometry analysis (reference value: 57.4%); assay type: functional
Homo sapiens [16] = species on record: Homo sapiens; assay: Binding affinity to E2F1 consensus sequence DNA in human KCL22 cells assessed as reduction in MRRF gene expression at 3 uM incubated for 24 hrs by RT-qPCR analysis relative to control; assay type: cell-based
KCL-22 [17] = assay: Inhibition of cell expansion in human KCL22 cells at 10 nM incubated for 48 hrs by trypan blue dye exclusion counting method; assay type: functional, cell-based

| SMILES | Activity (Homo sapiens [1]) | Activity (KCL-22 [2]) | inhibition (KCL-22 [3]) | Activity (KCL-22 [4]) | Activity (Homo sapiens [5]) | Activity (KCL-22 [6]) | Activity (Homo sapiens [7]) | inhibition (KCL-22 [8]) | Activity (Homo sapiens [9]) | CI (KCL-22 [10]) | Activity (KCL-22 [11]) | Activity (Homo sapiens [12]) | Activity (KCL-22 [13]) | Activity (Homo sapiens [14]) | Activity (KCL-22 [15]) | Activity (Homo sapiens [16]) | inhibition (KCL-22 [17]) |
| --- | --- | --- | --- | --- | --- | --- | --- | --- | --- | --- | --- | --- | --- | --- | --- | --- | --- |
| CN(C)CCCNC(=O)c1cc(NC(=O)c2cc(NC(=O)c3cc(NC(=O)c4cc(NC(=O)[C@H](N)CCNC(=O)c5nc(NC(=O)c6nc(NC(=O)c7cc(NC(=O)c8nccn8C)cn7C)cn6C)cn5C)cn4C)cn3C)cn2C)cn1C | Active | Active | Active | 26.4% | Active | 3.84% | Active | Active | Active | >1 | 10.8% | Active | Active | Active | 58.1% | Active |  |
| Cc1cn(-c2cc(NC(=O)c3ccc(C)c(Nc4nccc(-c5cccnc5)n4)c3)cc(C(F)(F)F)c2)cn1 |  |  |  |  |  |  |  |  |  |  |  |  |  |  |  |  | Active |
